PMC4343023, “Selectivity of odorant-binding proteins from the southern house mosquito tested against physiologically relevant ligands” (Frontiers in Physiology, 2015)
Like-named read-outs stand apart in the source and are kept apart here.

Tests used:
[1] = target: T1, CquiOBP1 (Culex quinquefasciatus, UniProt Q8T6I2); assay: biochemical; format: binding; conditions: for Int (fluorescence emission): residual NPN fluorescence, normalized to 100 prior to ligand, screen at 2–20 μM ligand
Experimental: (§1) Binding affinity (Ban et al., [2002]) was tested with a panel of 34 compounds, including attractants, a mosquito oviposition pheromone, repellents, terpenoids and other putative mosquito attractants or repellents. Unless otherwise specified, they were purchased from Sigma-Aldrich/Fluka/Acros (St. Louis, MO). Repellents: DEET (N,N-diethyl-3-methylbenzamide), PMD (p-mentan-3,8-diol) (Bedoukian Research, Inc.), picaridin (butan-2-yl 2-(2-hydroxyethyl)piperidine-1-carboxylate), IR3535 (ethyl 3-[acetyl(butyl)amino]propanoate) (gifts from Dr. Kamal Chauhan, USDA, ARS, Beltsville), (±)-citronellal, and ethyl 2-phenylacetate. Oviposition attractants: (5R,6S)-6-acetoxy-5-hexadecanolide, MOP (Bedoukian Research, Inc.), skatole, indole, 4-methylphenol, and 4-ethylphenol. Human derived compounds: nonanal, 6-methyl-5-hepten-2-one (sulcatone). Terpenoids and other putative attractants/repellents: linalool, linalool oxide, eucalyptol, camphor, fenchone, thujone, geranyl acetate, eugenol, (Z)-3-hexenyl acetate, 1-octen-3-ol, 1-octyn-3-ol, 3-octanol, 1-hexanol, methylcyclohexanol, methyl salicylate, cyclohexanone, acetophenone, benzaldehyde, 3,5-dimethoxybenzene, 1,2-dimethoxybenzene, and 2-phenylethanol.
(§2) Fluorescence spectra were recorded in a right angle configuration on a spectrofluorimeter (RF-5301, Shimadzu, Kyoto, Japan) at room temperature using a 1 cm light path fluorimeter quartz cuvette. Slit widths of 10 nm were selected for both excitation and emission. N-phenyl-1-naphthylamine (NPN, or 1-NPN) (Ban et al., [2002]) was dissolved in methanol to yield a 1 mM stock solution. The binding affinity for NPN was determined by adding aliquots of NPN into a 10 μg/ml (microgram) protein sample. NPN was excited at 337 nm and emission spectra were recorded at high speed scanning between 350 and 500 nm. All ligands used in competition experiments were dissolved in spectrophotometric grade methanol. Binding data were collected in three independent measurements. Bound ligand was evaluated from fluorescence intensity assuming that the protein was 100% active, with a stoichiometry of 1:1 (protein: ligand) at saturation. The KNPN values were estimated using Prism 5 (GraphPad Software, Inc., La Jolla, CA) by non-linear regression for a unique site of binding. The curves were linearized using Scatchard plots. Dissociation constants of the competitors were calculated according to Campanacci et al. ([2001]) from the corresponding IC50 values in the equation: Kdiss = [IC50]/1+[NPN]/KNPN, where [NPN] is the free concentration of NPN and KNPN is the dissociation constant of the complex protein/NPN.

[2] = target: CquiOBP2 (Culex quinquefasciatus, UniProt C7BDZ6); assay: biochemical; format: binding; conditions: for Int (fluorescence emission): residual NPN fluorescence, normalized to 100 prior to ligand, screen at 2–20 μM ligand
Experimental: as §1, §2

[3] = target: CquiOBP5 (Culex quinquefasciatus, UniProt C7BDZ9); assay: biochemical; format: binding; conditions: for Int (fluorescence emission): residual NPN fluorescence, normalized to 100 prior to ligand, screen at 2–20 μM ligand
Experimental: as §1, §2

[4] = target: T1, CquiOBP1; assay: pH-dependent binding assay; conditions: CquiOBP1-NPN quenching by ligand, pH 4.5 to 8, 4PL fit
Experimental: To investigate the effects of pH on CquiOBP1–ligand complexes, fluorescence binding assay was measured between CquiOBP1 and three best ligands at different pH values. Buffer were prepared into two different ways: starting from 1M phosphate buffer, pH 4, pH was increased and adjusted by adding sodium hydroxide. Then protein was added to make a solution at each tested pH from 4.5 to 8. Experiments were repeated starting from pH 8 and lowering the pH by adding hydrochloric acid. Each tested solution had 200 mM buffer and 10 μg/ml (microgram) of CquiOBP1. As there were no significant differences in fluorescence data generated at a certain pH regardless of having the pH raised by adding NaOH or lowered by addition of HCl, data were pooled for subsequent analysis.
The pH of the midpoint transitions was obtained by non-linear fitting, sigmoidal with an equation for four-parameter logistic (4PL) of curve segments between the lowest and highest decrease in fluorescence (the rising part of each curve). The pH values calculated for the midpoint transitions with MOP, picaridin, and nonanal were 6.3, 5.8, and 5.5, respectively. Although the pH at the surface of dendritic membrane is not known, it is predicted that too low midpoint transition may lead to odorants being trapped in OBPs and not being properly delivered. In short, the acidity at the surface of the membrane may not be enough to trigger release of a ligand with too low midpoint transition pH. By considering only the dissociation constants obtained by in vitro binding assays (Table 1), one could reasonably argue that CquiOBP1 is involved in reception of nonanal. […] Next, we compared how these ligands would interact with CquiOBP1.

[5] = CquiOBP1, NPN displacement titration, read-out: IC50
[6] = CquiOBP1, calculated from IC50 of NPN displacement, read-out: Kd
[7] = CquiOBP2, NPN displacement titration, read-out: IC50
[8] = CquiOBP2, calculated from IC50 of NPN displacement, read-out: Kd
[9] = CquiOBP5, NPN displacement titration, read-out: IC50
[10] = CquiOBP5, calculated from IC50 of NPN displacement, read-out: Kd

T1 sequence (Q8T6I2 entry or part of it): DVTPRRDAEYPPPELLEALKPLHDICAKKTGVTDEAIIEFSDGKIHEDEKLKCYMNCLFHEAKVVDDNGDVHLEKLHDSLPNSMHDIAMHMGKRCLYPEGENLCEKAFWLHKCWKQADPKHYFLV
Chain of CquiOBP5 (C7BDZ9 entry or part of it): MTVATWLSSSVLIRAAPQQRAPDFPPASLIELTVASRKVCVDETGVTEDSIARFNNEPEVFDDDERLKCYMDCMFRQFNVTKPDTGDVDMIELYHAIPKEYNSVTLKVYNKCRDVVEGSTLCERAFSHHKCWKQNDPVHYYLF
Chain of CquiOBP2 (C7BDZ6 entry or part of it): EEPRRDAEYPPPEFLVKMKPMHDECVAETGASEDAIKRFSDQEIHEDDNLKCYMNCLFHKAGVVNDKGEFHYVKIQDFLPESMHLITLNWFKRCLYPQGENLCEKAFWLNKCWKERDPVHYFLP

Row | Compound | IC50 [1, 5] [µM] | Kd [1, 6] [µM] | Int (fluorescence emission) ([1]; CquiOBP1) | IC50 [2, 7] [µM] | Kd [2, 8] [µM] | Int (fluorescence emission) ([2]; CquiOBP2) | IC50 [3, 9] [µM] | Kd [3, 10] [µM] | Int (fluorescence emission) ([3]; CquiOBP5) | IC50 [1] [µM] | Kd [1] [µM] | IC50 [2] [µM] | Kd [2] [µM] | IC50 [3] [µM] | Kd [3] [µM] | pH of the midpoint transition [4]
1 | CC12CCC(CC1)C(C)(C)O2 [Eucalyptol, eucalyptol] | > 10 | > 6.3 | 96 | > 10 | > 2.5 | 90 | > 10 | > 7 | 73 | – | – | – | – | – | – | –
2 | OCCc1ccccc1 [2-Phenylethanol, 2-phenylethanol] | > 10 | > 6.3 | 91 | > 10 | > 2.5 | 92 | > 10 | > 7 | 95 | – | – | – | – | – | – | –
3 | C=CC(O)CCCCC (stereo not shown) [1-Octen-3-ol, 1-octen-3-ol] | > 10 | > 6.3 | 69 | > 10 | > 2.5 | 93 | 11.6 | 8.1 | 59 | – | – | – | – | – | – | –
4 | CCCCCCO [1-Hexanol, 1-hexanol] | > 10 | > 6.3 | 85 | > 10 | > 2.5 | 89 | > 10 | > 7 | 88 | – | – | – | – | – | – | –
5 | CC1CCC(O)CC1 (stereo not shown) [4-Methylcyclohexanol] | > 10 | > 6.3 | 88 | > 10 | > 2.5 | 88 | > 10 | > 7 | 93 | – | – | – | – | – | – | –
6 | (±)-citronellal | > 10 | > 6.3 | 65 | > 10 | > 2.5 | 88 | > 10 | > 7 | 90 | – | – | – | – | – | – | –
7 | CCOC(=O)Cc1ccccc1 [Ethyl 2-phenylacetate, ethyl 2-phenylacetate] | – | – | 92 | – | – | 87 | – | – | 91 | > 10 | > 6.3 | > 10 | > 2.5 | > 10 | > 7 | –
8 | CC12CCC(CC1=O)C2(C)C (stereo not shown) [Camphor, camphor] | > 10 | > 6.3 | 90 | > 10 | > 2.5 | 85 | > 10 | > 7 | 89 | – | – | – | – | – | – | –
9 | O=C1CCCCC1 [Cyclohexanone, cyclohexanone] | > 10 | > 6.3 | 79 | > 10 | > 2.5 | 86 | > 10 | > 7 | 82 | – | – | – | – | – | – | –
10 | CC1CCC(C(C)(C)O)C(O)C1 (stereo not shown) [PMD, p-mentan-3,8-diol] | > 10 | > 6.3 | 80 | 5.3 | 1.3 | 35 | 13.8 | 9.6 | 61 | – | – | – | – | – | – | –
11 | CC(=O)OC/C=C(\C)CCC=C(C)C [Geranyl acetate, geranyl acetate] | > 10 | > 6.3 | 94 | > 10 | > 2.5 | 90 | > 10 | > 7 | 81 | – | – | – | – | – | – | –
12 | CCC(C)OC(=O)N1CCCCC1CCO (stereo not shown) [Picaridin, butan-2-yl 2-(2-hydroxyethyl)piperidine-1-carboxylate] | – | – | 51 | – | – | 77 | – | – | 45 | 10.2 | 6.4 | > 10 | > 2.5 | 7.9 | 5.6 | 5.8
13 | CC/C=C\CCOC(C)=O [(Z)-3-Hexenyl acetate, (Z)-3-hexenyl acetate] | > 10 | > 6.3 | 79 | > 10 | > 2.5 | 93 | > 10 | > 7 | 83 | – | – | – | – | – | – | –
14 | CCN(CC)C(=O)c1cccc(C)c1 [DEET, N,N-diethyl-3-methylbenzamide] | > 10 | > 6.3 | 82 | > 10 | > 2.5 | 96 | > 10 | > 7 | 92 | – | – | – | – | – | – | –
15 | CCc1ccc(O)cc1 [4-Ethylphenol, 4-ethylphenol] | > 10 | > 6.3 | 85 | > 10 | > 2.5 | 91 | > 10 | > 7 | 84 | – | – | – | – | – | – | –
